Earlier results, collected in US6346511B1, “Pharmaceutical composition comprising cyclosporin” (Panacea Biotec Limited, priority 1997, dated 2002).

Tested on: normal epithelial tissue and Peyer's patch tissue of guinea pigs
Conditions: in vitro, compared to the commercially available drinking solution

Substance: Choleic acid
- factor by which absorption of Cyclosporine was raised: 5-6
